Laboratory results reported in paper PMC3048208 (British Journal of Cancer, 2011).
Entries after “also recorded” stand apart in the source; their conditions may differ. Structures can show the parent of a compound that is named as a salt. Where two headings read alike, the source gives them in different places.

Legend:
[1] = test system: acetylated histone H3 (AcH3) in PBMCs; experiment: AcH3 levels in PBMCs by western blot; assay type: in vivo, human
Procedure: Based on the preclinical data showing parallel changes in AcH3 in PBMCs and tumour tissue, PBMCs were selected for study in the phase I trial ([Novotny-Diermayr et al, 2008]; [Yong et al, 2009]).
Whole blood samples for PD evaluation were taken in cycle 1, days 1 and 15 at pre-dose followed by 3 and 24 h post-dose. For each sample, blood was collected at room temperature in an 8-ml BD Vacutainer CPT tube (Becton, Dickson and Company, Franklin Lakes, NJ, USA). Blood samples were processed in a refrigerated centrifuge within 30 min of collection to preserve histone acetylation status. PBMCs were extracted from blood, processed to pellet form and stored at −80°C. Levels of AcH3 in PBMCs were determined using a validated western blot technique ([Novotny-Diermayr et al, 2008]).

[2] = Plasma pharmacokinetics of SB939 in patients, LC–MS/MS, non-compartmental; assay type: in vivo, human; details: for AUC(0-inf) / Cmax / half-life / Tmax: human, plasma
Procedure: Pre-dose PK assessment was also performed on day 15 of treatment.
Whole blood was collected into a 3-ml blood tubes containing K2EDTA anti-coagulant and centrifuged at 1000 g for 10 min at 4°C. Plasma was kept as an aliquot and frozen at −80°C. […] The samples were centrifuged at 1200 g for 10 min at 4°C, and the supernatant was stored at −80°C until analysis at MPI Research, Mattawan, MI, USA. Pharmacokinetic parameters were calculated by a non-compartmental method using WinNonlin 4.0 software (Pharsight Corporation, Mountain View, CA, USA). Peak plasma concentration (Cmax) and time to peak concentration (Tmax) were estimated from the plasma drug concentration–time curve. The elimination half-life (T1/2) during the log-linear terminal phase was calculated from the elimination rate constant determined by a linear regression analysis. The area under the concentration time curve extrapolated to infinity (AUC0−∞) was calculated by the log-linear trapezoidal method for the observed values, with extrapolation to infinity including at least three points on the terminal phase.

[3] = test system: dog; details: 3 days per week in a 28-day cycle; cited from earlier work
[4] = test system: cancer cells; set-up: method as in Novotny-Diermayr et al, 2010; details: ref Novotny-Diermayr et al, 2010; cited from earlier work
[5] = test system: advanced solid tumours; experiment: Anti-tumour activity (RECIST 1.0); assay type: in vivo, human; details: for Period of disease stabilisation: colorectal carcinoma patient
Procedure: For patients with measurable disease at baseline, response was assessed using the Response and Evaluation Criteria in Solid Tumours version 1.0 ([Therasse et al, 2000]).

[6] = test system: other zinc-binding enzymes; set-up: method as in Novotny-Diermayr et al, 2010; details: in vitro; ref Novotny-Diermayr et al, 2010; cited from earlier work
[7] = oral, 10 mg, Day 1, dose level 1, 10 mg, 3 days every 2 weeks
[8] = oral, 10 mg, Day 1, dose level 2, 10 mg
[9] = oral, 10 mg, Day 3 or 5, dose level 1, 10 mg, 3 days every 2 weeks
[10] = oral, 10 mg, Day 3 or 5, dose level 2, 10 mg
[11] = oral, 20 mg, Day 1, dose level 3, 20 mg
[12] = oral, 20 mg, Day 3 or 5, dose level 3, 20 mg
[13] = oral, 30 mg, Day 1, dose level 4, 30 mg
[14] = oral, 30 mg, Day 3 or 5, dose level 4, 30 mg
[15] = oral, 50 mg, Day 1, dose level 5, 50 mg
[16] = oral, 50 mg, Day 3 or 5, dose level 5, 50 mg
[17] = oral, 60 mg, Day 1, dose level 5.5, 60 mg
[18] = oral, 60 mg, Day 3 or 5, dose level 5.5, 60 mg
[19] = oral, 70 mg, Day 1, dose level 6, 70 mg
[20] = oral, 70 mg, Day 3 or 5, dose level 6, 70 mg
[21] = oral, 90 mg, Day 1, dose level 7, 90 mg
[22] = oral, 90 mg, Day 3 or 5, dose level 7, 90 mg

SMILES: CCCCc1nc2cc(/C=C/C(=O)NO)ccc2n1CCN(CC)CC [SB939, 3-[2-butyl-1-(2-diethylaminoethyl)-1H-benzoimidazol-5-yl]-N-hydroxyacrylami-hydrochloride]
- Dose–PD relationship of AcH3 ([1]; 10 to 90 mg): no clear dose–PD relationship
- Change in AcH3 in PBMCs ([1]; cycle 1, 3 h or 24 h post-treatment): Increases in AcH3 were seen
- Dose proportionality of mean AUC ([2]; between 10 and 90 mg): dose-proportional increases in AUC; also recorded: increased dose proportionally
- Accumulation on Day 5 compared with Day 1 ([2]; daily x 5 dosing): no accumulation
- AUC(0-inf) [2, 7]: 127 ng·h/mL
- Cmax [2, 7]: 14.6 ng/mL
- half-life ([2]; oral, 10 mg, Day 1, dose level 1, 10 mg, 3 days every 2 weeks, read-out: T1/2, mean (converted)): 426 min
- Tmax ([2]; oral, 10 mg, Day 1, dose level 1, 10 mg, 3 days every 2 weeks, read-out: Tmax, mean): 2.5 h
- AUC(0-inf) [2, 8]: 137 ng·h/mL
- Cmax [2, 8]: 19.5 ng/mL
- half-life ([2]; oral, 10 mg, Day 1, dose level 2, 10 mg, read-out: T1/2, mean (converted)): 516 min
- Tmax ([2]; oral, 10 mg, Day 1, dose level 2, 10 mg, read-out: Tmax, mean): 1.1 h
- AUC(0-inf) [2, 9]: 147 ng·h/mL
- Cmax [2, 9]: 18.3 ng/mL
- half-life ([2]; oral, 10 mg, Day 3 or 5, dose level 1, 10 mg, 3 days every 2 weeks, read-out: T1/2, mean (converted)): 498 min
- Tmax ([2]; oral, 10 mg, Day 3 or 5, dose level 1, 10 mg, 3 days every 2 weeks, read-out: Tmax, mean): 1.3 h
- AUC(0-inf) [2, 10]: 188 ng·h/mL
- Cmax [2, 10]: 23.3 ng/mL
- half-life ([2]; oral, 10 mg, Day 3 or 5, dose level 2, 10 mg, read-out: T1/2, mean (converted)): 486 min
- Tmax ([2]; oral, 10 mg, Day 3 or 5, dose level 2, 10 mg, read-out: Tmax, mean): 1.3 h
- AUC(0-inf) [2, 11]: 244 ng·h/mL
- Cmax [2, 11]: 45.9 ng/mL
- half-life ([2]; oral, 20 mg, Day 1, dose level 3, 20 mg, read-out: T1/2, mean (converted)): 354 min
- Tmax ([2]; oral, 20 mg, Day 1, dose level 3, 20 mg, read-out: Tmax, mean): 1.5 h
- AUC(0-inf) [2, 12]: 424 ng·h/mL
- Cmax [2, 12]: 51.3 ng/mL
- half-life ([2]; oral, 20 mg, Day 3 or 5, dose level 3, 20 mg, read-out: T1/2, mean (converted)): 462 min
- Tmax ([2]; oral, 20 mg, Day 3 or 5, dose level 3, 20 mg, read-out: Tmax, mean): 1.6 h
- AUC(0-inf) [2, 13]: 384 ng·h/mL
- Cmax [2, 13]: 55.8 ng/mL
- half-life ([2]; oral, 30 mg, Day 1, dose level 4, 30 mg, read-out: T1/2, mean (converted)): 516 min
- Tmax ([2]; oral, 30 mg, Day 1, dose level 4, 30 mg, read-out: Tmax, mean): 1.8 h
- AUC(0-inf) [2, 14]: 544 ng·h/mL
- Cmax [2, 14]: 74.3 ng/mL
- half-life ([2]; oral, 30 mg, Day 3 or 5, dose level 4, 30 mg, read-out: T1/2, mean (converted)): 528 min
- Tmax ([2]; oral, 30 mg, Day 3 or 5, dose level 4, 30 mg, read-out: Tmax, mean): 1.6 h
- AUC(0-inf) [2, 15]: 661 ng·h/mL
- Cmax [2, 15]: 124 ng/mL
- half-life ([2]; oral, 50 mg, Day 1, dose level 5, 50 mg, read-out: T1/2, mean (converted)): 336 min
- Tmax ([2]; oral, 50 mg, Day 1, dose level 5, 50 mg, read-out: Tmax, mean): 1.6 h
- AUC(0-inf) [2, 16]: 794 ng·h/mL
- Cmax [2, 16]: 101 ng/mL
- half-life ([2]; oral, 50 mg, Day 3 or 5, dose level 5, 50 mg, read-out: T1/2, mean (converted)): 534 min
- AUC(0-inf) [2, 17]: 1030 ng·h/mL
- Cmax [2, 17]: 210 ng/mL
- half-life ([2]; oral, 60 mg, Day 1, dose level 5.5, 60 mg, read-out: T1/2, mean (converted)): 402 min
- Tmax ([2]; oral, 60 mg, Day 1, dose level 5.5, 60 mg, read-out: Tmax, mean): 1.2 h
- AUC(0-inf) [2, 18]: 1630 ng·h/mL
- Cmax [2, 18]: 262 ng/mL
- half-life ([2]; oral, 60 mg, Day 3 or 5, dose level 5.5, 60 mg, read-out: T1/2, mean (converted)): 414 min
- Tmax ([2]; oral, 60 mg, Day 3 or 5, dose level 5.5, 60 mg, read-out: Tmax, mean): 1.3 h
- AUC(0-inf) [2, 19]: 1050 ng·h/mL
- Cmax [2, 19]: 178 ng/mL
- half-life ([2]; oral, 70 mg, Day 1, dose level 6, 70 mg, read-out: T1/2, mean (converted)): 420 min
- Tmax ([2]; oral, 70 mg, Day 1, dose level 6, 70 mg, read-out: Tmax, mean): 1.6 h
- AUC(0-inf) [2, 20]: 1130 ng·h/mL
- Cmax [2, 20]: 160 ng/mL
- half-life ([2]; oral, 70 mg, Day 3 or 5, dose level 6, 70 mg, read-out: T1/2, mean (converted)): 384 min
- Tmax ([2]; oral, 70 mg, Day 3 or 5, dose level 6, 70 mg, read-out: Tmax, mean): 1.5 h
- AUC(0-inf) [2, 21]: 1130 ng·h/mL
- Cmax [2, 21]: 229 ng/mL
- half-life ([2]; oral, 90 mg, Day 1, dose level 7, 90 mg, read-out: T1/2, mean (converted)): 384 min
- Tmax ([2]; oral, 90 mg, Day 1, dose level 7, 90 mg, read-out: Tmax, mean): 1 h
- AUC(0-inf) [2, 22]: 1230 ng·h/mL
- Cmax [2, 22]: 116 ng/mL
- half-life ([2]; oral, 90 mg, Day 3 or 5, dose level 7, 90 mg, read-out: T1/2, mean (converted)): 366 min
- Tmax ([2]; oral, 90 mg, Day 3 or 5, dose level 7, 90 mg, read-out: Tmax, mean): 1.5 h
- Tmax ([2]; po, 10 to 90 mg oral, read-out: Tmax, range over dose levels): 1 to 2.5 h
- half-life ([2]; po, 10 to 90 mg oral, read-out: Elimination (terminal) half-life, range over dose levels): 336 to 534 min
- No observed adverse effect level [3]: 60 mg m^−2 per day
- Immunoblot changes after treatment [4]: accumulation of acetylated histone H3 (AcH3) and acetylated α-tubulin, as well as increased expression levels of the cyclin dependant kinase inhibitor p21
- Objective tumour responses ([5]; 31 evaluable patients): No objective tumour responses
- Period of disease stabilisation ([5]; dose level 2): 8.1 months
- Period of disease stabilisation ([5]; dose level 3): 10.8 months
- Period of disease stabilisation ([5]; dose level 4): 7.4 months
- Disease stabilisation of >6 months, no. of patients ([5]; metastatic colorectal carcinoma): Three
- Best response stable disease ([5]; of the 31 evaluable): 32%
- Best response stable disease, no. of patients ([5]; of the 31 evaluable): Ten
- Disease progression ([5]; of the 31 evaluable): 68%
- Disease progression, no. of patients ([5]; of the 31 evaluable): 21
- Median duration of disease control ([5]; patients with SD): 5.7 months
- Range of duration of disease control ([5]; patients with SD): 1.8–10.8 months
- Effects on other zinc-binding enzymes [6]: no effects
